The values that follow come from ChEMBL document CHEMBL1201862, “PubChem BioAssay data set” (2004).

Activity calls are given as the source filed them.

Assay [1] deals with T1, Leucine aminopeptidase (Plasmodium falciparum 3D7, UniProt Q8IL11).
T1 sequence (Q8IL11 whole entry): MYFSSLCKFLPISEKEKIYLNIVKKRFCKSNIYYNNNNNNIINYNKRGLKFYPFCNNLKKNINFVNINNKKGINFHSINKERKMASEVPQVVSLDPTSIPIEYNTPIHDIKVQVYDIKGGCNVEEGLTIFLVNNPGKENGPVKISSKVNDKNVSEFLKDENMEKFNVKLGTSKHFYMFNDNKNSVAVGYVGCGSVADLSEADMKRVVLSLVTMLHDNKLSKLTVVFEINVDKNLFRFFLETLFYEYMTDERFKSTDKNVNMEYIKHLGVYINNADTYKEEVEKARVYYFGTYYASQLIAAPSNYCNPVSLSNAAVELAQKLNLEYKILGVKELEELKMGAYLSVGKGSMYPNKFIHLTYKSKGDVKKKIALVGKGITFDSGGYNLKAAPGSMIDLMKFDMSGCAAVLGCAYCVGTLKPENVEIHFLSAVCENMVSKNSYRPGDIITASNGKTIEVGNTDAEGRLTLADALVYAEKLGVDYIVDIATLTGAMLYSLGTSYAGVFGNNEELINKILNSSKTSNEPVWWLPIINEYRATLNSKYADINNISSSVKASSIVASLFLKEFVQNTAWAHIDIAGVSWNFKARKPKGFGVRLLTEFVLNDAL
The assay can be described thus: P. falciparum M17LAP inhibitors, primary screen, biochemical, fluorogenic H-Leu-NHMec substrate, 1536-well (AID 1619). Type of assay: functional.

Assay [2] concerns the target T2, Aspartyl aminopeptidase (Plasmodium falciparum 3D7, UniProt Q8I2J3).
T2 sequence (Q8I2J3 whole entry): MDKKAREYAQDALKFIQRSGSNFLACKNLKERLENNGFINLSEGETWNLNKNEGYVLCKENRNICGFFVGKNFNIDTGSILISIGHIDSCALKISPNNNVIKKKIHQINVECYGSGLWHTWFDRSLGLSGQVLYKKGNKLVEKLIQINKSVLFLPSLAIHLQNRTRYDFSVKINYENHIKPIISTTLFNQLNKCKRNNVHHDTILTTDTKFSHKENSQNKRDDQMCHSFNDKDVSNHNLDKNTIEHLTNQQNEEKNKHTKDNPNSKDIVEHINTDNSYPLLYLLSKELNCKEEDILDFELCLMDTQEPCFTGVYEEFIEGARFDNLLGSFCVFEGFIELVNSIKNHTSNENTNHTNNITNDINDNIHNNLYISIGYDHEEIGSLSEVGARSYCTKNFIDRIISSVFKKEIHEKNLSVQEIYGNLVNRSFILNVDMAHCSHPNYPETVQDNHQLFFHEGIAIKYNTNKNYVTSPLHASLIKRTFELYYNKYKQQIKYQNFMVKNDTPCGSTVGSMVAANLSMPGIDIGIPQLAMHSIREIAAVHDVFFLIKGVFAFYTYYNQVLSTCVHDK
The assay can be described thus: Counterscreen for inhibitors of M1 and M17 aminopeptidases: QFRET-based biochemical high throughput dose response assay for inhibitors of the Plasmodium falciparum M18 Aspartyl Aminopeptidase (PFM18AAP). [Related PubChem assays: 1619 (Screening assay (M17LAP inhibitors).), 1445 (Screening assay (M1AAP inhibitors).)]. (The purpose of a counterscreen is to sort out artefacts and off-target activity.)

In assay [3] the target is Procathepsin L (Homo sapiens, UniProt P07711). The assay can be described thus: cathepsin L inhibitors, dose response, counter-screen for M1/M17 aminopeptidase inhibitor project, biochemical, QFRET, 1536-well (AID 2214).
The target of assay [4] is T3, Corticotropin-releasing factor receptor 2/Corticotropin-releasing factor-binding protein (Homo sapiens, UniProt P24387+Q13324).
T3 sequence (Q13324 whole entry): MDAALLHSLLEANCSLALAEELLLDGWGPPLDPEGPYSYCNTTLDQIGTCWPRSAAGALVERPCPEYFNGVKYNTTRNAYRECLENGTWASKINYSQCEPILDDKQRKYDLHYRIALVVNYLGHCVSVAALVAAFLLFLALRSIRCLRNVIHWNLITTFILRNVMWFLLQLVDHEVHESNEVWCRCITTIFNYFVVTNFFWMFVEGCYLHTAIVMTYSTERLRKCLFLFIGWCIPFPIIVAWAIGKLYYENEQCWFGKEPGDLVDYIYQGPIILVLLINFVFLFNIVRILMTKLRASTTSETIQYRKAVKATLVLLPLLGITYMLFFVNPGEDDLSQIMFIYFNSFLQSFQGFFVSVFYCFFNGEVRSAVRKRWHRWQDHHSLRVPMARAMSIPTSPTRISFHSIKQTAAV
T3 sequence (P24387 whole entry): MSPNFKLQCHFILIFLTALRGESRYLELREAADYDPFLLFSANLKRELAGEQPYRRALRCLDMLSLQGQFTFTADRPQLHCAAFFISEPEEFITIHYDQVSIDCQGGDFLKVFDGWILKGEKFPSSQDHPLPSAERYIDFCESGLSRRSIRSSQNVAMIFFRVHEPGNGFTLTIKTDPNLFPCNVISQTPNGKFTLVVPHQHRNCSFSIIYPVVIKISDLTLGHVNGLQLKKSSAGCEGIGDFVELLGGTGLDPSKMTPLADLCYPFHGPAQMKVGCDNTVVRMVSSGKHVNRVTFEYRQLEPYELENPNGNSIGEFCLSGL
Briefly: Dose Response confirmation of uHTS hits for small molecule antagonists of the CRF-binding protein and CRF-R2 receptor complex. Type of assay: functional. Conditions: read-out: IC50_Mean.

Assay [5] has as its target T3, Corticotropin-releasing factor receptor 2/Corticotropin-releasing factor-binding protein. The assay can be described thus: activators of CRF receptor 2 with binding protein – uHTS hits, confirmation (AID 602473). The assay is classed as functional. Conditions: read-out: EC50_Mean.
Assay [6] is described as follows: CRF-BP/CRF-R2 complex antagonists, dose response, cell-based, uHTS hits, 384-well (AID 651639). Type of assay: functional, Homo sapiens. The following applies: read-out: IC50_Mean.
The target of assay [7] is T4, Short transient receptor potential channel 4 (Mus musculus, UniProt Q9QUQ5).
T4 sequence (Q9QUQ5 whole entry): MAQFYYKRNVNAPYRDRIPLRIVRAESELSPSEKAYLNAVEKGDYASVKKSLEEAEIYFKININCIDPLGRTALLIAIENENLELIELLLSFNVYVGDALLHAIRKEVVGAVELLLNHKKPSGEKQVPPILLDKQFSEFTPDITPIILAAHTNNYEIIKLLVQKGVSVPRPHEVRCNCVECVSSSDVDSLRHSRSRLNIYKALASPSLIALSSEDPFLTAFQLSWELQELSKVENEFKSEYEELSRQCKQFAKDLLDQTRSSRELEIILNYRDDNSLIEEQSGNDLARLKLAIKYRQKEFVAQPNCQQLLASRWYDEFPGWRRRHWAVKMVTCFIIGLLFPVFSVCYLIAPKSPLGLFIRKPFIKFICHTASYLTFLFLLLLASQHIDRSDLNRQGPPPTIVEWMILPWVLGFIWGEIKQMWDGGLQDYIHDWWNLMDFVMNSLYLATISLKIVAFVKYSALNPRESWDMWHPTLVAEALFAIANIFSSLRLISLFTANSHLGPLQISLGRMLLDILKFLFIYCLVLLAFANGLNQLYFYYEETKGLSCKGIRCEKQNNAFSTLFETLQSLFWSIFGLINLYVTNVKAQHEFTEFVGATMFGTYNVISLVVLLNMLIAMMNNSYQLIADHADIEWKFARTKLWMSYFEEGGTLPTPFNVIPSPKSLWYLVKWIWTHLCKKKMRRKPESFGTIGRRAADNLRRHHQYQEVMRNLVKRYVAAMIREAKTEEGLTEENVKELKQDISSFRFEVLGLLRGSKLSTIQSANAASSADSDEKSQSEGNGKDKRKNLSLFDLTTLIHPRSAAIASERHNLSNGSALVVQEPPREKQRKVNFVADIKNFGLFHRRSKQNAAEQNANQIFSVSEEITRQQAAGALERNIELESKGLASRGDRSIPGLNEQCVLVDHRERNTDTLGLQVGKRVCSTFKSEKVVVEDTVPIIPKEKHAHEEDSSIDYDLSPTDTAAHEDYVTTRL
Briefly: mouse TRPC4 channel inhibitors, dose response, cell-based, HEK293 TRPC4/mu-opioid, Fluo-4 calcium (AID 434942).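 Further: potency of inhibitors blocking the TRPC4 calcium response.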 The assay is classed as functional.

For assay [8], the target named is Genome polyprotein (dengue virus type 2, UniProt P29990). Briefly: Dengue-2 NS5 methyltransferase inhibitors, primary screen, biochemical, confirmation dose response (AID 588689). Type of assay: functional.
In assay [9] the target is T5, Estrogen receptor (Homo sapiens, UniProt P03372).
T5 sequence (P03372 whole entry): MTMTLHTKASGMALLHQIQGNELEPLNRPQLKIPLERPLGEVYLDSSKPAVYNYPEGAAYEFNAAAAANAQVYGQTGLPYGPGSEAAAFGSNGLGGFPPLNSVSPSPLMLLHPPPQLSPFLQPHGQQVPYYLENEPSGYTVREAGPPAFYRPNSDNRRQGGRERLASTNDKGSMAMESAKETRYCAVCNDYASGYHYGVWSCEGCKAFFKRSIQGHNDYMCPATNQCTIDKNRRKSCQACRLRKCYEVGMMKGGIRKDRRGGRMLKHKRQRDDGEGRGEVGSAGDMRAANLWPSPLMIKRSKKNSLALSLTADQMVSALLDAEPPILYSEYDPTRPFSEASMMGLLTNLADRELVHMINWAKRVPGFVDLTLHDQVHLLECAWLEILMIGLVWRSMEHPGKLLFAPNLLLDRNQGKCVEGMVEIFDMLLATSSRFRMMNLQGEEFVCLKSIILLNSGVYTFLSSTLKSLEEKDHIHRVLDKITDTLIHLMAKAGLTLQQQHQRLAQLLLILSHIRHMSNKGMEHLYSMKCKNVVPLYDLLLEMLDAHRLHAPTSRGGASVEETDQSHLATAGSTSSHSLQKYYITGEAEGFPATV

The target in assay [10] is Estrogen receptor beta (Homo sapiens, UniProt Q92731).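 Further: recombinant ER-beta bound to coactivator SRC1 peptide in presence of estradiol agonist; inhibitors block coactivator peptide binding and lower the FRET signal.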
The target in assay [11] is T6, Protein skinhead-1 (Caenorhabditis elegans, UniProt P34707).
T6 sequence (P34707 whole entry): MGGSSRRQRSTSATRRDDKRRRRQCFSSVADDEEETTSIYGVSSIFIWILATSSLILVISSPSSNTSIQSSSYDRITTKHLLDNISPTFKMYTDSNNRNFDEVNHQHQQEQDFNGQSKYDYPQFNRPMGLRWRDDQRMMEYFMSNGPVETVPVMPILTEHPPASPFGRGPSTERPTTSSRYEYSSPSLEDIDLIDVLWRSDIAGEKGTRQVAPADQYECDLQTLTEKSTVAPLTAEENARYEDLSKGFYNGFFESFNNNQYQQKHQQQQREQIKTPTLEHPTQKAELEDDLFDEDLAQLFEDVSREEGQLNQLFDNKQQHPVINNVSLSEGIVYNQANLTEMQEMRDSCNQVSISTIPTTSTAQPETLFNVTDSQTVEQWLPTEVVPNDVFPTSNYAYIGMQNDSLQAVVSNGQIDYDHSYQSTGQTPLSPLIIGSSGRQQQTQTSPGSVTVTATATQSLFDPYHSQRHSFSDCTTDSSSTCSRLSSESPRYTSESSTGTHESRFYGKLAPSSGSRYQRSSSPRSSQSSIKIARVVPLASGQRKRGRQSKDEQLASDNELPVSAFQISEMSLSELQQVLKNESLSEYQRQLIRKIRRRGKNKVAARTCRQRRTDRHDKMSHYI
The assay is classed as functional.

Procathepsin L, sequence (P07711 whole entry): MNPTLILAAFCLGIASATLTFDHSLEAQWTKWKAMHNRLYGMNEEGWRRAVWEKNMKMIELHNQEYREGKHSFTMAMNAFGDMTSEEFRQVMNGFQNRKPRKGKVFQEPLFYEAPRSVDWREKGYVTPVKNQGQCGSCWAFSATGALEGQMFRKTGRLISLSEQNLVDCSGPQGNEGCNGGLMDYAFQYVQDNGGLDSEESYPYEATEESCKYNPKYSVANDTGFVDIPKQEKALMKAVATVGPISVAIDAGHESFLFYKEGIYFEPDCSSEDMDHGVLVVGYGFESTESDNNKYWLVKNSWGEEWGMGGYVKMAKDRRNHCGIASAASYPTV
Estrogen receptor beta, sequence (Q92731 whole entry): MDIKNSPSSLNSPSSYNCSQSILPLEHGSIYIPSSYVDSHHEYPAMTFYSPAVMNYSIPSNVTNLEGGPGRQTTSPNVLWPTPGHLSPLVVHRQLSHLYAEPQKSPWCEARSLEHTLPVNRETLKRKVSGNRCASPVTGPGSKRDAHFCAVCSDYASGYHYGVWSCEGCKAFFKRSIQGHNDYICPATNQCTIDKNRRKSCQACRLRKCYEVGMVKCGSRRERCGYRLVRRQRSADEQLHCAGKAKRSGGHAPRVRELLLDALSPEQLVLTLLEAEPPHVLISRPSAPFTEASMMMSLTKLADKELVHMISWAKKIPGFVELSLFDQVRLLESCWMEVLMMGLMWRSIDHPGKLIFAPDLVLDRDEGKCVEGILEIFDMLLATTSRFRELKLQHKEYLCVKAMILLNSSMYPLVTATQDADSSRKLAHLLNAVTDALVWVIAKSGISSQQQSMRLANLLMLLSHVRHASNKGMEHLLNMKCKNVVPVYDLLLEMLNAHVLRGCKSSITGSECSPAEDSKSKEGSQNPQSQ
Genome polyprotein, sequence (P29990 2492-3391 limits assumed): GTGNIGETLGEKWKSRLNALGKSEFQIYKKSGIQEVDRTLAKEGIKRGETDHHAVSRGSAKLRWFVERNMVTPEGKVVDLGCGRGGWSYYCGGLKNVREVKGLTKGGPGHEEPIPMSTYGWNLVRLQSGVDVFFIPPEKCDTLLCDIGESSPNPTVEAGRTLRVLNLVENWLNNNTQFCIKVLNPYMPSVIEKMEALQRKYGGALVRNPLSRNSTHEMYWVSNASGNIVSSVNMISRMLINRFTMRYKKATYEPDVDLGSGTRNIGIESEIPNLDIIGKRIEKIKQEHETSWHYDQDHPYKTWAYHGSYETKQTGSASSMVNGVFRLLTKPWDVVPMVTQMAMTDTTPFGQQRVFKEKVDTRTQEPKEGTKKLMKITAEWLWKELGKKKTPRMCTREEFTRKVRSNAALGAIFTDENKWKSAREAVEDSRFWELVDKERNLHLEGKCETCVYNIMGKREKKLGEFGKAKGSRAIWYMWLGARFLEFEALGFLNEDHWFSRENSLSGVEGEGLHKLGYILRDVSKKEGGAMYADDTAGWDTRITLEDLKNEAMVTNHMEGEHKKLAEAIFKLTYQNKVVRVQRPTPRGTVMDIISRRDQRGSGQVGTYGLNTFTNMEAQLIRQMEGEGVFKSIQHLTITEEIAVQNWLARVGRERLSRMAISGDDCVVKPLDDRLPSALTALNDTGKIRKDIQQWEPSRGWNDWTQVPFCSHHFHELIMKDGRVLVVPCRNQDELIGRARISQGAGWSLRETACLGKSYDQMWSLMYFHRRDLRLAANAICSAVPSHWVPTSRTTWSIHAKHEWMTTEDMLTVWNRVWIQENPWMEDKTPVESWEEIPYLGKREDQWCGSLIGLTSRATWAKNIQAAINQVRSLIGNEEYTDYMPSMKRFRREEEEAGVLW

Take `Cc1cc(O)nc(SCC(=O)Nc2cccc(C(F)(F)F)c2)n1`: the IC50 in [1] is 7.15 µM (active); in assay [2], > 73.5 µM (not active); in assay [3], > 59.6 µM (not active).
On to `COc1cc(NC(=O)CSc2nc3c(C)ccc(C)c3cc2C)c(C(=O)O)cc1OC`, for which the IC50 is < 1 µM (active) in assay [1]; > 73.5 µM (not active) in assay [2]; 59.3 µM (not active) in [3]; 10.1 µM (active) in assay [4]; > 20 µM (inactive) in [6]. In assay [5], the EC50 was > 53 µM (inactive).
Take `CCOC(=O)c1c(-c2cccc(C)c2)csc1NC(=O)C1CC=CCC1C(=O)O` (stereo not drawn): the IC50 in assay [1] is 5.96 µM (active); in assay [2], > 73.5 µM (not active); in assay [3] it was > 59.6 µM (not active); in assay [8], 61 µM (active). In [7], the EC50 is 7.5 µM (active).
For `Cc1ccc(C(=O)CSC2=C(C#N)C(c3ccco3)CC(=O)N2)c(C)c1` (stereo not drawn), the IC50 in assay [9] was 26.5 µM (active); in [10] it was 16.1 µM (active).
Consider `Cc1cc(Cl)cc(C)c1OCCCCN1CCOCC1`, for which the values for the IC50 in assay [9] and in assay [11] were > 50 µM (not active) and 38.9 µM (active), respectively.
